{
  "source": "patent US9913832B2",
  "about": "“Accelerating thrombus resolution through augmentation of p53 activity” (priority 2009, dated 2018)",
  "key": {"normal (wildtype) mice": {"tested_on": "normal (wildtype) mice", "experiment": "mouse model of thrombus resolution (vena caval ligation), normal mice", "format": "in vivo", "conditions": "25 mg/kg body weight by daily injection, versus saline, FIG. 8", "description": "In an effort to develop pharmacological and molecular therapy to accelerate thrombus resolution, the function of the p53 gene was studied in an in vivo model of thrombus resolution. In this mouse model (vena caval ligation) the thrombus shrinks between day 4 and day 12 by about 50% as defined by change in thrombus weight. It was noted that the expression of the p53 protein is increased in thrombus resolution.\nIn order to determine whether augmentation of normal p53 function could accelerate thombus resolution wildtype mice were treated with the p53 activator quinacrine (25 mg/kg body weight, by daily injection). Quinacrine is known to increase p53 levels by stabilizing the p53 protein and preventing its normal degradation inside cells.\n(§1) The well-established rodent model of thrombus resolution was used to define a role for the p53 gene in this process. In this model, a mouse is anesthetized, the abdomen is opened with standard sterile surgical technique and the vena cava (the largest abdominal vein) is ligated in the abdomen with a suture immediately below the level of the renal veins.\nThe weight of the thrombus decreases with time, and this change in weight reflects the thrombus resolution process in this model. […]"}, "[1]": {"tested_on": "mice lacking the p53 gene", "experiment": "mouse model of thrombus resolution (vena caval ligation), mice lacking the p53 gene", "format": "in vivo", "conditions": "quinacrine versus control, FIG. 9, last two columns", "description": "To determine whether the beneficial effect on thrombus resolution of quinacrine was due to activation of the p53 gene and not some other unknown effect of quinacrine on thrombus resolution the quinacrine experiment was repeated in mice that lack p53 (FIG. 2).\nas §1\nTo determine if pharmacologic activation of the p53 gene beyond its usual activation by thrombus resolution might accelerate thrombus resolution, normal mice were treated with the p53 activator quinacrine (25 mg/kg body weight, by daily injection) or saline as a control, and then subjected to vena caval ligation as described above. […] To determine if this effect of quinacrine was actually due to p53 activation, this experiment was repeated in animals lacking the p53 gene."}, "experimental thrombi": {"tested_on": "experimental thrombi", "conditions": "literature studies of exogenous therapy on formed or established thrombus; cited from earlier work"}},
  "note": "“Also recorded” adds a separate entry of the source.",
  "data": [
    {"compound": "CCN(CC)CCCC(C)Nc1c2ccc(Cl)cc2nc2ccc(OC)cc12", "note": "(stereo not shown) [quinacrine]", "values": [
      {"measurement": "thrombus resolution as determined by thrombus weight on day 12", "setting": "normal (wildtype) mice", "value": "improved thrombus resolution; also recorded: decreased thrombus weight"},
      {"measurement": "thrombus resolution / thrombus size at day 12", "setting": "[1]", "value": "absent; also recorded: no difference in thrombus size"}
    ]},
    {"compound": "low molecular weight heparin", "values": [
      {"measurement": "thrombus resolution in experimental animal models", "setting": "experimental thrombi", "value": "no improvement in the resolution of an established thrombus"}
    ]},
    {"compound": "MCP-1: cytokine macrophage chemotactic factor", "values": [
      {"measurement": "thrombus resolution in experimental animal models", "setting": "experimental thrombi", "value": "does improve experimental thrombus resolution"}
    ]}
  ]
}
